19 compounds from patent US20260317340A1, “COMPOUNDS, COMPOSITIONS, AND METHODS OF TREATING DISORDERS” (Chengdu Anticancer Bioscience, Ltd., priority 2023, published 2026) can be followed below.

Experiment [1] has as its system RPE-Neo or RPE-MYC or RPE-MYC expressing an EGFP-Histone 2B fusion protein. Kind of experiment: Phenotypic screening assay: arrest in mitosis, change in DNA content (polyploidy), cell death. In kind it is cell-based. The conditions noted are these: 20 nM to 20 μM, 24, 48 or 72 hours. Put shortly:
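Compound exposure from 20 nM to 20 μM in RPE lines (Neo, MYC, or MYC with EGFP-histone H2B), seeded 18-24 h earlier; imaging at 24, 48 or 72 h read mitotic arrest or altered DNA content, with MTT for proliferation. Results reported as A–D range categories.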

For another experiment, the system named is RPE-Neo or RPE-MYC cells. Kind of experiment: MTT assay of cellular proliferation (proliferative arrest). It counts as cell-based. The conditions noted are these: for minimal effective concentration: read-out: Min. Effective conc. for Proliferative arrest (>50%).
The mark [2] stands for this setting: read-out: Min. Effective conc. for Along with Cell Death.
The mark [3] stands for this setting: ≥5%, read-out: Min. Effective conc. for Mitotic Arrest (≥5%).
Where [4] appears, read: ≥5%, read-out: Min. Effective conc. for Polyploidy (≥5%).

Each structure is given as a SMILES string. Where two headings read alike, the source gives them in different places.

In the case of `CCOC(=O)Cn1cc(-c2ccc3c(c2)N(Cc2ccc(OC)cc2)C(=O)CC(c2ncc(C)o2)=C3)cn1` [Compound 71, Ethyl 2-(4-(1-(4-methoxybenzyl)-4-(5-methyloxazol-2-yl)-2-oxo-2,3-dihydro-1H-benzo[b]azepin-8-yl)-1H-pyrazol-1-yl)acetate], the minimal effective concentration (in experiment [1] (setting [2]); in experiment [1] (setting [3]); in experiment [1] (setting [4]); in the experiment on RPE-Neo or RPE-MYC cells) was 0.001 to 1 µM in each case.
Turning to `COc1ccc(CN2C(=O)CC(c3ncc(C)o3)=Cc3ccc(-c4cnn(C5CC5)c4)cc32)cc1` [Compound 34, 8-(1-cyclopropyl-1H-pyrazol-4-yl)-1-(4-methoxybenzyl)-4-(5-methyloxazol-2-yl)-1,3-dihydro-2H-benzo[b]azepin-2-one], the minimal effective concentration (in experiment [1] (setting [2]); in experiment [1] (setting [3]); in experiment [1] (setting [4]); with RPE-Neo or RPE-MYC cells) was 0.001 to 1 µM in each case.
Take `Cc1ccc(CN2C(=O)CC(c3nnc(C4CC4)o3)=C(Br)c3scc(C)c32)cc1F` [Compound 1, 8-Bromo-7-(5-cyclopropyl-1,3,4-oxadiazol-2-yl)-4-(3-fluoro-4-methylbenzyl)-3-methyl-4,6-dihydro-5H-thieno[3,2-b]azepin-5-one]: the minimal effective concentration (in experiment [1] (setting [2]); in experiment [1] (setting [3]); in experiment [1] (setting [4]); in the experiment with RPE-Neo or RPE-MYC cells) was 0.001 to 1 µM throughout.
Regarding `COc1ccc(CN2C(=O)CC(c3ncc(C)o3)=Cc3ccc(-c4cnn(CC#N)c4)cc32)cc1` [Compound 68, 2-(4-(1-(4-methoxybenzyl)-4-(5-methyloxazol-2-yl)-2-oxo-2,3-dihydro-1H-benzo[b]azepin-8-yl)-1H-pyrazol-1-yl)acetonitrile], the minimal effective concentration (in experiment [1] (setting [2]); in experiment [1] (setting [3]); in experiment [1] (setting [4]); in the experiment on RPE-Neo or RPE-MYC cells) was 0.001 to 1 µM throughout.
On to `COCCCCn1cc(-c2ccc3c(c2)N(Cc2ccc(OC)cc2)C(=O)CC(c2ncc(C)o2)=C3)cn1` [Compound 79, 1-(4-methoxybenzyl)-8-(1-(4-methoxybutyl)-1H-pyrazol-4-yl)-4-(5-methyloxazol-2-yl)-1,3-dihydro-2H-benzo[b]azepin-2-one], for which the minimal effective concentration (in experiment [1] (setting [2]); in experiment [1] (setting [3]); in experiment [1] (setting [4]); with RPE-Neo or RPE-MYC cells) was 0.001 to 1 µM each time.
As for `COc1ccc(CN2C(=O)CC(c3nc(C)no3)=Cc3ccc(-c4cnn(CC(C)(C)O)c4)cc32)cc1` [Compound 99, 8-(1-(2-Hydroxy-2-methylpropyl)-1H-pyrazol-4-yl)-1-(4-methoxybenzyl)-4-(3-methyl-1,2,4-oxadiazol-5-yl)-1,3-dihydro-2H-benzo[b]azepin-2-one], the minimal effective concentration (in experiment [1] (setting [2]); in experiment [1] (setting [3]); in experiment [1] (setting [4]); with RPE-Neo or RPE-MYC cells) was 0.001 to 1 µM each time.
On to `COc1ccc(CN2C(=O)CC(c3ncc(C)o3)=Cc3ccc(-c4cnn(C5(CC#N)CN(C(=O)C6CC6)C5)c4)cc32)cc1` [Compound 90, 2-(1-(Cyclopropanecarbonyl)-3-(4-(1-(4-methoxybenzyl)-4-(5-methyloxazol-2-yl)-2-oxo-2,3-dihydro-1H-benzo[b]azepin-8-yl)-1H-pyrazol-1-yl)azetidin-3-yl)acetonitrile], for which the minimal effective concentration (in experiment [1] (setting [2]); in experiment [1] (setting [3]); in experiment [1] (setting [4]); with RPE-Neo or RPE-MYC cells) was 0.001 to 1 µM each time.
`COc1ccc(CN2C(=O)CC(c3nnco3)=Cc3ccc(-c4cnn(CC(C)(C)O)c4)cc32)cc1` [Compound 98, 8-(1-(2-Hydroxy-2-methylpropyl)-1H-pyrazol-4-yl)-1-(4-methoxybenzyl)-4-(1,3,4-oxadiazol-2-yl)-1,3-dihydro-2H-benzo[b]azepin-2-one]: the minimal effective concentration (in experiment [1] (setting [2]); in experiment [1] (setting [3]); in experiment [1] (setting [4]); in the experiment with RPE-Neo or RPE-MYC cells) was 0.001 to 1 µM throughout.
In the case of `COc1ccc(CN2C(=O)CC(c3ncc(C)o3)=Cc3ccc(-c4cn[nH]c4)cc32)cc1` [Compound 33, 1-(4-methoxybenzyl)-4-(5-methyloxazol-2-yl)-8-(1H-pyrazol-4-yl)-1,3-dihydro-2H-benzo[b]azepin-2-one], the minimal effective concentration (in experiment [1] (setting [2]); in experiment [1] (setting [3]); in experiment [1] (setting [4]); in the experiment with RPE-Neo or RPE-MYC cells) was 0.001 to 1 µM in each case.
Take `CNC(=O)Cn1cc(-c2ccc3c(c2)N(Cc2ccc(OC)cc2)C(=O)CC(c2ncc(C)o2)=C3)cn1` [Compound 67, 2-(4-(1-(4-Methoxybenzyl)-4-(5-methyloxazol-2-yl)-2-oxo-2,3-dihydro-1H-benzo[b]azepin-8-yl)-1H-pyrazol-1-yl)-N-methylacetamide]: the minimal effective concentration (in experiment [1] (setting [2]); in experiment [1] (setting [3]); in experiment [1] (setting [4]); in the experiment on RPE-Neo or RPE-MYC cells) was 0.001 to 1 µM throughout.
`COc1ccc(CN2C(=O)CC(c3ncc(C)o3)=Cc3ccc(-c4cnn(C5(C(N)=O)CC5)c4)cc32)cc1` [Compound 92, 1-(4-(1-(4-Methoxybenzyl)-4-(5-methyloxazol-2-yl)-2-oxo-2,3-dihydro-1H-benzo[b]azepin-8-yl)-1H-pyrazol-1-yl)cyclopropane-1-carboxamide]: the minimal effective concentration (in experiment [1] (setting [2]); in experiment [1] (setting [3]); in experiment [1] (setting [4]); in the experiment on RPE-Neo or RPE-MYC cells) was 0.001 to 1 µM throughout.
On to `COc1ccc(CN2C(=O)CC(c3ncc(C)o3)=Cc3ccc(-c4cnn(C5(CC#N)CN(S(C)(=O)=O)C5)c4)cc32)cc1` [Compound 87, 2-(3-(4-(1-(4-Methoxybenzyl)-4-(5-methyloxazol-2-yl)-2-oxo-2,3-dihydro-1H-benzo[b]azepin-8-yl)-1H-pyrazol-1-yl)-1-(methylsulfonyl)azetidin-3-yl)acetonitrile], for which the minimal effective concentration (in experiment [1] (setting [2]); in experiment [1] (setting [3]); in experiment [1] (setting [4]); with RPE-Neo or RPE-MYC cells) was 0.001 to 1 µM each time.
Take `COc1ccc(CN2C(=O)CC(c3cnco3)=C(Br)c3ccccc32)cc1` [Compound 7, 5-Bromo-1-(4-methoxybenzyl)-4-(oxazol-5-yl)-1,3-dihydro-21-benzo[b]azepin-2-one]: the “Min. Effective conc. for Along with Cell Death” value in experiment [1] is “A (greater than or equal to 1 nM and less than or equal to 1.0 μM)”. In experiment [1] (≥5%), the “Min. Effective conc. for Mitotic Arrest (≥5%)” value is “A (greater than or equal to 1 nM and less than or equal to 1.0 μM)”; the “Min. Effective conc. for Polyploidy (≥5%)” value was “A (greater than or equal to 1 nM and less than or equal to 1.0 μM)”. The “Min. Effective conc. for Proliferative arrest (>50%)” value in the experiment with RPE-Neo or RPE-MYC cells (>50%) was “A (greater than or equal to 1 nM and less than or equal to 1.0 μM)”.
For `COc1ccc(CN2C(=O)CC(c3ncc(C)o3)=Cc3ccc(-c4cnn(C(C)C(N)=O)c4)cc32)cc1` (stereo not shown) [Compound 72], the minimal effective concentration (in experiment [1] (setting [2]); in experiment [1] (setting [3]); in experiment [1] (setting [4]); in the experiment with RPE-Neo or RPE-MYC cells) was 0.001 to 1 µM each time.
Take `Cc1cnc(C2=Cc3ccccc3N(Cc3ccc(C)c(F)c3)C(=O)C2)o1` [Compound 18, 1-(3-fluoro-4-methylbenzyl)-4-(5-methyloxazol-2-yl)-1,3-dihydro-2H-benzo[b]azepin-2-one]: the minimal effective concentration (in experiment [1] (setting [2]); in experiment [1] (setting [3]); in experiment [1] (setting [4]); in the experiment with RPE-Neo or RPE-MYC cells) was 0.001 to 1 µM each time.
For the compound `COc1ccc(CN2C(=O)CC(c3ccon3)=C(Br)c3ccccc32)cc1` [Compound 8, 5-Bromo-4-(isoxazol-3-yl)-1-(4-methoxybenzyl)-1,3-dihydro-2H-benzo[b]azepin-2-one], the minimal effective concentration (in experiment [1] (setting [2]); in experiment [1] (setting [3]); in experiment [1] (setting [4]); in the experiment on RPE-Neo or RPE-MYC cells) was 0.001 to 1 µM throughout.
For the compound `COc1ccc(CN2C(=O)CC(c3nnc(C4CC4)o3)=Cc3ccc(-c4cnn(CCN5CCOCC5)c4)cc32)cc1` [Compound 52, 4-(5-cyclopropyl-1,3,4-oxadiazol-2-yl)-1-(4-methoxybenzyl)-8-(1-(2-morpholinoethyl)-1H-pyrazol-4-yl)-1,3-dihydro-2H-benzo[b]azepin-2-one], the minimal effective concentration (in experiment [1] (setting [2]); in experiment [1] (setting [3]); in experiment [1] (setting [4]); in the experiment on RPE-Neo or RPE-MYC cells) was 0.001 to 1 µM in each case.
With `COc1ccc(CN2C(=O)CC(c3ncc(C)o3)=Cc3ccc(-c4cnn(CC(C)(C)O)c4)cc32)cn1` [Compound 103, 8-(1-(2-Hydroxy-2-methylpropyl)-1H-pyrazol-4-yl)-1-((6-methoxypyridin-3-yl)methyl)-4-(5-methyloxazol-2-yl)-1,3-dihydro-2H-benzo[b]azepin-2-one], the minimal effective concentration (in experiment [1] (setting [2]); in experiment [1] (setting [3]); in experiment [1] (setting [4]); with RPE-Neo or RPE-MYC cells) was 0.001 to 1 µM throughout.
`COc1ccc(CN2C(=O)CC(c3nnc(C)o3)=Cc3ccc(-c4cnn(CC(C)(C)O)c4)cc32)cc1` [Compound 93, 8-(1-(2-Hydroxy-2-methylpropyl)-1H-pyrazol-4-yl)-1-(4-methoxybenzyl)-4-(5-methyl-1,3,4-oxadiazol-2-yl)-1,3-dihydro-2H-benzo[b]azepin-2-one]: the minimal effective concentration (in experiment [1] (setting [2]); in experiment [1] (setting [3]); in experiment [1] (setting [4]); in the experiment on RPE-Neo or RPE-MYC cells) was 0.001 to 1 µM each time.
